Measured values: PMC12220852, “An adamantane‐based ligand as a novel chemical tool for thermosensory TRPM8 channel therapeutic modulation” (The Febs Journal, 2025)
Values joined by “and” are separate entries in the source; they are usually repeats but may differ in a detail not shown here. Identical values can stand only once.

How the values were obtained:
[1] = biological target: T1, hTRPV1 (Homo sapiens, UniProt Q8NER1); assay: Whole-cell patch-clamp of capsaicin-evoked currents in HEK293 cells expressing hTRPV1; type: cell-based; conditions: −60 mV
T1 construct: expressed in transfected cells; host or cells: HEK293 (transient, Lipofectamine 3000)
Description: (§1) To evaluate receptor selectivity, we investigated the activity of compound 23 on recombinant hTRPV1 and hTRPA1 channels recombinantly expressed in HEK293 cells (Fig. 4). We choose these thermosensory channels because of their structural similarity and expression in peripheral nociceptive terminals. In addition, some ligand cross‐interaction within these channels has been reported.
Recording through patch‐clamp techniques was performed on HEK293 cells cultured in DMEM GlutaMax with 10% FBS and 1% P/S. The cell lines were authenticated following the standardization of STR Profiling guidelines (ANSI/ATCC ASN‐0002‐2022) using the CLA Identifier Plus PCR Amplification Kit (Thermo Fisher‐A44660) to analyze 16 highly variant human STRs. The cells were confirmed to be mycoplasma‐free. These cells were transiently transfected with plasmids encoding hTRPV1, hTRPM8, or hTRPA1 using Lipofectamine 3000. Transfected cells were seeded on 12 mm Ø glass coverslips treated with poly‐L‐lysine solution and recorded 2 days post‐transfection. […] Leak currents were not subtracted, and conductance was calculated using the equation: G = I/(V − V r), where I is the measured ionic current, V is the applied voltage, and V r is the reversal potential that for the ionic conditions used was set to 0 mV. […]

[2] = biological target: T2, recombinant human TRPM8 stably expressed in HEK293 cells (hTRPM8) (Homo sapiens, UniProt Q7Z2W7); assay: Ca2+ microfluorimetry screen for agonist/antagonist activity in hTRPM8-HEK293 cells; type: cell-based; conditions: agonists vs WS-12, antagonists vs WS-12 response, read-out: Efficacy (percentage of maximal activation or blockade)
T2 construct: expressed in transfected cells

[3] = biological target: T3, hTRPA1 (Homo sapiens, UniProt O75762); assay: Whole-cell patch-clamp of AITC-evoked currents in HEK293 cells expressing hTRPA1; type: cell-based; conditions: −60 mV
T3 construct: expressed in transfected cells; host or cells: HEK293 (transient, Lipofectamine 3000)
Description: as §1
Recording through patch‐clamp techniques was performed on HEK293 cells cultured in DMEM GlutaMax with 10% FBS and 1% P/S. The cell lines were authenticated following the standardization of STR Profiling guidelines (ANSI/ATCC ASN‐0002‐2022) using the CLA Identifier Plus PCR Amplification Kit (Thermo Fisher‐A44660) to analyze 16 highly variant human STRs. The cells were confirmed to be mycoplasma‐free. These cells were transiently transfected with plasmids encoding hTRPV1, hTRPM8, or hTRPA1 using Lipofectamine 3000. Transfected cells were seeded on 12 mm Ø glass coverslips treated with poly‐L‐lysine solution and recorded 2 days post‐transfection. The intracellular pipette solution included (in mM) 150 NaCl, 3 MgCl2, 5 EGTA, and 10 HEPES, pH 7.2 with CsOH, while the extracellular solution contained (in mM) 150 NaCl, 6 CsCl, 1 MgCl2, 1.5 CaCl2, 10 glucose, and 10 HEPES, pH 7.4 with NaOH. An EPC‐10 amplifier with Patchmaster software was used in whole‐cell experiments. Patch pipettes, created from thin‐wall borosilicate capillary glass tubing, were pulled with a Micropipette puller to a final resistance of 2–8 MΩ when filled with the internal solution. Recordings were acquired at 10 kHz and low‐pass filtered at 3 kHz, discarding recordings with leak currents > 200pA or series resistance > 20 MΩ. In voltage‐clamp recordings, cells were held at a constant potential, and the application of modulators was carried out using a gravity‐driven perfusion system. […] Leak currents were not subtracted, and conductance was calculated using the equation: G = I/(V − V r), where I is the measured ionic current, V is the applied voltage, and V r is the reversal potential that for the ionic conditions used was set to 0 mV. […]

[4] = Metabolic stability and metabolite profile in mouse liver microsomes (MLM); type: in vitro ADME; conditions: after 1 h at 37 °C, 50 μM substrate
Description: Because of the lack of systemic activity of compound 23, we evaluated the in vitro plasmatic and hepatic metabolic stability. To this aim, compound 23 was exposed to mouse plasma and mouse liver microsome (MLM) fractions, and the residual substrate was measured after 1 h. Under these conditions, the residual substrate was about 97% and 90% in plasma and microsomes, respectively, denoting that this molecule suffers from mild hydrolysis of the ester group.
Metabolic biotransformation of compound 23 was investigated by tandem high‐resolution mass spectrometry using the software COMPOUND DISCOVERER 3.2™.
The standard incubation mixture (250 μL final volume) was carried out in a 50 mM Tris (tris[hydroxymethyl]aminomethane) buffer (pH 7.4) containing 150 mM KCl, […], 3.3 mM MgCl2, 1.3 mM NADPNa2, 3.3 mM glucose 6‐phosphate, 0.4 units·mL^−1 glucose 6‐phosphate dehydrogenase, acetonitrile as cosolvent (1% of total volume), and the substrate (50 μM). After pre‐equilibration of the mixture, an appropriate volume of MLM suspension was added to give a final protein concentration of 1.0 mg·mL^−1. The mixture was shaken for 60 min at 37 °C using a horizontal shaking thermostatic bath while protecting the samples from light. Control incubations were carried out without the presence of substrate, or NADPH regenerating system, or microsomes. Each incubation was stopped by the addition of 250 μL of ice‐cold acetonitrile, vortexed, and centrifuged at 13 000 r.p.m. for 5 min [68]. The supernatants were analyzed by LC‐UV and LC‐HRMS equipment (see Tables S1 and S2, Fig. S79 for full parameters setting in the Supporting Information).
The metabolic stability of the compound 23 was determined in vitro by measuring the residual peak area after incubation by LC‐UV analysis. Samples were further processed by LC‐HRMS equipment for metabolite profiling. Raw data files were processed using both XCALIBUR® and COMPOUND DISCOVERER 3.2® software (Thermo Scientific) using a customized workflow for the detection and identification of the expected and unknown metabolites (Fig. S80).

T1 sequence (Q8NER1 whole entry): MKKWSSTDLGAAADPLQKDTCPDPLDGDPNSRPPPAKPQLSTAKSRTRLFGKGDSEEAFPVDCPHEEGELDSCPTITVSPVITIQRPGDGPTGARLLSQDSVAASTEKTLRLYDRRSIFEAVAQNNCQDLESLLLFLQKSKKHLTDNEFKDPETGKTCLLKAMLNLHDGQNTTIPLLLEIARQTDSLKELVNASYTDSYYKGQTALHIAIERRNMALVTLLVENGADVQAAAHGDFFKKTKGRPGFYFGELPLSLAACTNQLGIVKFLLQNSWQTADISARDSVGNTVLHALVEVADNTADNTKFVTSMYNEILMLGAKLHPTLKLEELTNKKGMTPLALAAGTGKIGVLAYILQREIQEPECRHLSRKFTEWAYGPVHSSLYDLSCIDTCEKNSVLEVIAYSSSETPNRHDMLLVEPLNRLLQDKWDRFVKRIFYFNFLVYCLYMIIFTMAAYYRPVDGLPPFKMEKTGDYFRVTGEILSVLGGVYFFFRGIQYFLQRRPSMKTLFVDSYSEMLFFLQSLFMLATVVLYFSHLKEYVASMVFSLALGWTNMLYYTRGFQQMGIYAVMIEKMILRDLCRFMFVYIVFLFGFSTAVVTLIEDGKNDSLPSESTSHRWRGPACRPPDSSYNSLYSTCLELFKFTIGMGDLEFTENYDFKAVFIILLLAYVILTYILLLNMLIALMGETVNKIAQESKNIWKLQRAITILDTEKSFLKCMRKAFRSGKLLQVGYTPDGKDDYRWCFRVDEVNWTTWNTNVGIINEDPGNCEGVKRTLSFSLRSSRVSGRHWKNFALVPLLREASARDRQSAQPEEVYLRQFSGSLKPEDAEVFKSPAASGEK
T3 sequence (O75762 whole entry): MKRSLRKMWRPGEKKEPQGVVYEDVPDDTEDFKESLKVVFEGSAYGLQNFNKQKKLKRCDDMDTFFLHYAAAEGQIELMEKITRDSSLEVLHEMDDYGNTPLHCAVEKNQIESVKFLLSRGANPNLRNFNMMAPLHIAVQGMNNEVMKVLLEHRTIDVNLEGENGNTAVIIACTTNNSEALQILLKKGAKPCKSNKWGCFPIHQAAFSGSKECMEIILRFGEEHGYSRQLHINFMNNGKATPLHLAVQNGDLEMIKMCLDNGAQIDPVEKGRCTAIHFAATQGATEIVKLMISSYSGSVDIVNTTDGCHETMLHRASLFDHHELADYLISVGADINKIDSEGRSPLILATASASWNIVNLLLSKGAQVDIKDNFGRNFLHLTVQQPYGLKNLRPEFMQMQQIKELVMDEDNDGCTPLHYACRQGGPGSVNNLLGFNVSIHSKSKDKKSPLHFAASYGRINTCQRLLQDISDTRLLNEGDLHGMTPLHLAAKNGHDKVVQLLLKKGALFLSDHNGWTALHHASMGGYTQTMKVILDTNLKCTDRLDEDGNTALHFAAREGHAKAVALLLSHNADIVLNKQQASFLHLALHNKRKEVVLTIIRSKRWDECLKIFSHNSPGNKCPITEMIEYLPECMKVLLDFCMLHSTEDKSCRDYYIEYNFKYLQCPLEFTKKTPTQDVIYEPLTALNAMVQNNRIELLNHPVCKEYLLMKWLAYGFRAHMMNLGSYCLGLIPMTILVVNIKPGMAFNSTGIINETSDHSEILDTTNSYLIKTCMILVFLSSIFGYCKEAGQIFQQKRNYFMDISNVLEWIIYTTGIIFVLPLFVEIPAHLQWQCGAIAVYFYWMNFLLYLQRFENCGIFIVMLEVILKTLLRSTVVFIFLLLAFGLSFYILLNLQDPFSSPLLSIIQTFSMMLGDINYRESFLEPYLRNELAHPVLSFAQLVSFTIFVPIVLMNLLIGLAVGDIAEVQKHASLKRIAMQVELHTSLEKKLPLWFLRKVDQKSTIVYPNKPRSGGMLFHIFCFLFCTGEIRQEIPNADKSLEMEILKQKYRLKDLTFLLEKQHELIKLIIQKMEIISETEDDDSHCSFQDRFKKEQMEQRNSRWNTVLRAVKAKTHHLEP
T2 sequence (Q7Z2W7 whole entry): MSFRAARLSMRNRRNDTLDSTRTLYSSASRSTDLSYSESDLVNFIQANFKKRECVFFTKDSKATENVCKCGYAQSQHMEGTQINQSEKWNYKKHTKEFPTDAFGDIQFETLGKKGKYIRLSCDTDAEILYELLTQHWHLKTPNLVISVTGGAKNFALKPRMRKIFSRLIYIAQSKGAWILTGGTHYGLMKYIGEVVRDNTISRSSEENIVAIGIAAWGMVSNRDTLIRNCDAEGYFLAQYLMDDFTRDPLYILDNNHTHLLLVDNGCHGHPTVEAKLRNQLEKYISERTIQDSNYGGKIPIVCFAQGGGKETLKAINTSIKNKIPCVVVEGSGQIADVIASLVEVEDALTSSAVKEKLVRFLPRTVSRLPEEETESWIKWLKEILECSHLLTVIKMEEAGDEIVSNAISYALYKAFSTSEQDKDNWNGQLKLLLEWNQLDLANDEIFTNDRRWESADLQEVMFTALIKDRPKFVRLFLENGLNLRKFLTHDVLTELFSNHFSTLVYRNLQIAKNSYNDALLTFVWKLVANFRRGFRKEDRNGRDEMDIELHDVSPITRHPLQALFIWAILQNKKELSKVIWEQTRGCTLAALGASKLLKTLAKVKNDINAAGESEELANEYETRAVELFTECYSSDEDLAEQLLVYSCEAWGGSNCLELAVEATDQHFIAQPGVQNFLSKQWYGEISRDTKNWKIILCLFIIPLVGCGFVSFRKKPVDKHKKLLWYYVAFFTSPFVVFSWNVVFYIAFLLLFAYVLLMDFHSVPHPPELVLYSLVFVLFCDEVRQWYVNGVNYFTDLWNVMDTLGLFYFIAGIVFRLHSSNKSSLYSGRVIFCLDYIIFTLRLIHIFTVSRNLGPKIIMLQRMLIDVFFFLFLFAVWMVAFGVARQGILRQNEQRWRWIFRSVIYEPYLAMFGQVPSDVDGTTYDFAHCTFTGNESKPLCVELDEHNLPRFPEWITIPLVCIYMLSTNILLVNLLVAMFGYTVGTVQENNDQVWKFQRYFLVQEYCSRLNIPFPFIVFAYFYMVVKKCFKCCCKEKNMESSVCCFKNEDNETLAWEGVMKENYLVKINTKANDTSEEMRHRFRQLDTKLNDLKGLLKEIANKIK

- block of hTRPV1‐channel activity ([1]; 1 μM compound, 0.5 μM capsaicin): ≈ 50%
- IC50 ([1]; capsaicin-evoked current, n = 6, read-out: IC50 of hTRPV1 current blockade): 1100 nM and 1000 nM
- Emax [2]: 100%
- block of hTRPA1‐evoked (AITC) current ([3]; 5 μM compound, 60 μM AITC): ≈ 60%
- IC50 ([3]; AITC-evoked current, n = 8, read-out: IC50 of hTRPA1 current blockade): 3040 ± 2010 nM
- residual substrate in mouse liver microsomes without NADPH regenerating system [4]: ~90%
- residual substrate in mouse liver microsomes with NADPH regenerating system ([4]; monooxygenase system activated): about 42%
Structure (SMILES): O=C(COC(=O)c1ccccc1-c1ccccc1)NC12CC3CC(CC(C3)C1)C2 [Compound 23, 2‐((3S,5S,7S)‐adamantan‐1‐ylamino)‐2‐oxoethyl [1,1′‐biphenyl]‐2‐carboxylate]
